Data set [1] can be described thus: Glutathione peroxidase-like catalytic anti-lipid peroxidation activity assessed as inhibition of AAPH-induced lipid peroxidation incubated for 3 hrs using soybean lecithin/cholesterol-liposomes by TBARS assay. The format is physicochemical.
Data set [2] in a line: Glutathione peroxidase-like catalytic antioxidant activity in pH 7 phosphate buffer assessed as catalytic reduction of H2O2 by measuring initial velocity at 0.2 mM and 25 degreeC using reduced DTT as di-thiol co-substrate in presence of NADPH by UV absorbance analysis (reference value: 72+/- 3 microM/min). It is filed as functional.
The nature of data set [3]: Glutathione peroxidase-like catalytic antioxidant activity in pH 7 phosphate buffer assessed as catalytic reduction of H2O2 by measuring initial velocity at 100 uM and 25 degreeC using GSH as mono-thiol co-substrate in presence of NADPH by UV absorbance analysis (reference value: 11 +/- 0.4 microM/min). The format is functional.
The nature of data set [4]: Glutathione peroxidase-like catalytic activity assessed as drug oxidation by measuring (S)-[1,2,7]Oxadiselenepan-4-yl-ammonium formation incubated with 8.6 mM H2O2 and 8.6 mM reduced DTT in water at 3.8 mM incubated for 2 mins by ESI(+)-MS spectral analysis. It is filed as functional.
Data set [5] in a line: Glutathione peroxidase-like catalytic activity assessed as drug oxidation by measuring (S)-2,7-Dioxo-2lambda(4),7lambda(4)-[1,2,7]oxadiselenepan-4-yl-ammonium formation incubated with 8.6 mM H2O2 and 8.6 mM reduced DTT in water at 3.8 mM incubated for 2 mins by ESI(+)-MS spectral analysis. It is filed as functional.
The nature of data set [6]: Glutathione peroxidase-like catalytic activity assessed as drug oxidation by measuring (S)-2-Oxo-2lambda(4)-[1,2]diselenan-4-yl-ammonium formation incubated with 8.6 mM H2O2 and 8.6 mM reduced DTT in water at 3.8 mM incubated for 2 mins by ESI(+)-MS spectral analysis. The format is functional.
Data set [7] can be described thus: Glutathione peroxidase-like catalytic activity assessed as drug oxidation by measuring (S)-2-Oxo-2lambda(4)-[1,2]diselenan-4-yl-ammonium formation incubated with 3.8 mM H2O2 in water at 3.8 mM incubated for 30 mins by ESI(+)-MS spectral analysis. The format is functional.
Data set [8] is described as follows: Glutathione peroxidase-like catalytic activity assessed as drug oxidation by measuring (S)-[1,2,7]Oxadiselenepan-4-yl-ammonium formation incubated with 3.8 mM H2O2 in water at 3.8 mM incubated for 30 mins by ESI(+)-MS spectral analysis. The format is functional.
A short description of data set [9]: Glutathione peroxidase-like catalytic activity assessed as drug oxidation by measuring (S)-[1,2,7]Oxadiselenepan-4-yl-ammonium formation incubated with 8.6 mM H2O2 in water at 3.8 mM incubated for 3 hrs by ESI(+)-MS spectral analysis. The format is functional.
A short description of data set [10]: Glutathione peroxidase-like catalytic activity assessed as drug oxidation by measuring (S)-2,7-Dioxo-2lambda(4),7lambda(4)-[1,2,7]oxadiselenepan-4-yl-ammonium formation incubated with 8.6 mM H2O2 in water at 3.8 mM incubated for 3 hrs by ESI(+)-MS spectral analysis. The format is functional.
Data set [11] can be described thus: Glutathione peroxidase-like catalytic activity assessed as drug oxidation by measuring (2S)-1,4-diseleninobutan-2-aminium formation incubated with 8.6 mM H2O2 in water at 3.8 mM incubated for 3 hrs by ESI(+)-MS spectral analysis. It is filed as functional.
Data set [12] can be described thus: Glutathione peroxidase-like catalytic activity assessed as drug oxidation by measuring (S)-2-Oxo-2lambda(4)-[1,2,7]oxadiselenepan-4-yl-ammonium formation incubated with 8.6 mM H2O2 in water at 3.8 mM incubated for 3 hrs by ESI(+)-MS spectral analysis. It is filed as functional.
A short description of data set [13]: Glutathione peroxidase-like catalytic activity assessed as drug oxidation by measuring (S)-2,7-Dioxo-2lambda(4),7lambda(4)-[1,2,7]oxadiselenepan-4-yl-ammonium formation incubated with 3.8 mM H2O2 in water at 3.8 mM incubated for 30 mins by ESI(+)-MS spectral analysis. The format is functional.
The nature of data set [14]: Glutathione peroxidase-like catalytic activity assessed as drug oxidation by measuring (S)-2-Oxo-2lambda(4)-[1,2,7]oxadiselenepan-4-yl-ammonium formation incubated with 3.8 mM H2O2 in water at 3.8 mM incubated for 30 mins by ESI(+)-MS spectral analysis. The format is functional.
A short description of data set [15]: Glutathione peroxidase-like catalytic activity assessed as drug oxidation by measuring (S)-2-Oxo-2lambda(4)-[1,2]diselenan-4-yl-ammonium formation incubated with 8.6 mM H2O2 in water at 3.8 mM incubated for 3 hrs by ESI(+)-MS spectral analysis. The format is functional.
Data set [16] is described as follows: Glutathione peroxidase-like catalytic activity assessed as drug oxidation by measuring (2S)-1,4-diseleninobutan-2-aminium formation incubated with 8.6 mM H2O2 and 8.6 mM reduced DTT in water at 3.8 mM incubated for 2 mins by ESI(+)-MS spectral analysis. The format is functional.
Data set [17] can be described thus: Glutathione peroxidase-like catalytic activity assessed as drug oxidation by measuring (S)-2-Oxo-2lambda(4)-[1,2,7]oxadiselenepan-4-yl-ammonium formation incubated with 8.6 mM H2O2 and 8.6 mM reduced DTT in water at 3.8 mM incubated for 2 mins by ESI(+)-MS spectral analysis. It is filed as functional.
For data set [18], the system named is HeLa. Put plainly: (§1) Cytotoxicity against human HeLa cells assessed as cell viability at 20 uM measured after 15 hrs by MTT assay relative to control. The conditions noted are these: hela, 15 h, 20 µM. It is filed as cell-based. (Formazan colour is commonly taken as a measure of viable cells.)
Data set [19] deals with HeLa. Put plainly: Protection against H2O2-induced oxidative stress in human HeLa cells assessed as cell viability at 20 uM preincubated with compound for 15 hrs followed by drug wash-out and later incubated with H2O2 for 4 hrs by MTT assay. It is filed as functional, cell-based.
For data set [20], the system named is HeLa. Briefly: Protection against AAPH-induced oxidative stress in human HeLa cells assessed as increase in cell viability at 5 to 20 uM preincubated for 15 hrs followed by incubation with AAPH for 3 hrs by MTT assay relative to control. The conditions noted are these: dose 5-20 µM; time 18 hrs. It is filed as functional.
For data set [21], the system named is HeLa. Put plainly: Cytotoxicity against human HeLa cells assessed as reduction in cell viability at 100 uM measured after 15 hrs hrs by MTT assay. The format is cell-based.
A short description of data set [22]: Solubility of the compound in phosphate buffer solution at pH 7.5 in presence of reduced DTT. It is filed as physicochemical.
Data set [23] can be described thus: Glutathione peroxidase-like catalytic antioxidant activity in pH 7 phosphate buffer assessed as catalytic reduction of H2O2 by measuring lipoic acid formation using DHLA as co-substrate at 0.2 mM in presence of NADPH by UV absorbance analysis. The format is functional.
Data set [24] is described as follows: Glutathione peroxidase-like catalytic antioxidant activity assessed as CST-HCl thiol co-substrate oxidation by measuring disulfide formation at 11.5 umol in presence of CHP lipophilic peroxide in 10 mM aqueous HCl/CH2Cl2 solution incubated for 24 hrs by 1H-NMR spectroscopy. It is filed as functional. Particulars: dose 11.5 µmol.
Data set [25] is described as follows: Glutathione peroxidase-like catalytic antioxidant activity assessed as CST-HCl thiol co-substrate oxidation by measuring disulfide formation at 11.5 umol in presence of CHP lipophilic peroxide in water/CH2Cl2 solution incubated for 24 hrs by 1H-NMR spectroscopy. It is filed as functional. Particulars: dose 11.5 µmol.
Data set [26] is described as follows: Antioxidant activity assessed as radical scavenging activity by measuring DPBQ generation using DPPD and AMVN as radical initiator at 0.5 mM preincubated for 5 mins with DPPD followed by AMVN addition and measured for 30 mins by UV/Vis-spectrophotometry analysis. The conditions noted are these: time 35.0 min. The format is functional.
Data set [27] is described as follows: as §1. Particulars: HeLa cells, read-out: Activity. It is filed as cell-based.
Data set [28] is described as follows: Glutathione peroxidase-like catalytic anti-lipid peroxidation activity assessed as inhibition of AAPH-induced lipid peroxidation incubated for 3 hrs in presence of (+/-)-trans-5-Hydroxy-1,2-diselenan-4-yl dodecanoate using soybean lecithin/cholesterol-liposomes by TBARS assay. The format is physicochemical.

The source made the active and inactive calls. No cut-off for these calls is given here.

Usually IC50 stands for the concentration that gives 50% inhibition. On to `c1ccc([Se][Se]c2ccccc2)cc1`, for which, in data set [1], the IC50 came out at 70.1 µM.

Take `O[C@@H]1C[Se]C[C@H]1O`: the IC50 result in [2] and in data set [3] was “Not Active” each time.

Turning to `N[C@H]1CC[Se][Se]C1`, the Drug metabolism entry is recorded as “Metabolite detected” in data set [4]; “Metabolite not detected” in data set [5]; “Metabolite detected” in data set [6]; “Metabolite detected” in data set [7]; “Metabolite detected” in data set [8]; “Metabolite detected” in [9]. Besides, the Drug metabolism result in [10], in data set [11], in data set [12], in data set [13], in data set [14] and in data set [15] was “Metabolite detected” each time. The Drug metabolism result in data set [16] and in [17] was “Metabolite not detected” in each case.

Turning to `O=C(O[C@@H]1C[Se][Se]C[C@H]1O)c1ccc2ccccc2c1` (racemic), the figures for the Activity result in the data set with HeLa [18] and in the data set with HeLa [21] were “Non-Toxic” and “Toxic”, respectively. In addition, in the data set on HeLa [19], the outcome was inactive. For the same compound, the “fold change (FC)” value in the data set with HeLa [20] was determined as 1.5. For the same compound, the IC50 in [1] came out at 15.5 µM. For the same compound, the solubility result in data set [22] was “Insoluble”. In addition, the V0 in data set [3] was 11.3 µM/min.

On to `O=C(O[C@@H]1C[Se][Se]C[C@H]1O)c1ccccc1` (racemic), for which the Activity result with HeLa [18] and in the data set with HeLa [21] was “Toxic” throughout. In addition, the outcome in the data set with HeLa [19] was inactive. In data set [1], the IC50 worked out at 27.3 µM. In data set [22], the solubility result is recorded as “Soluble”. The V0 in data set [2] amounted to 116 µM/min; in [3], 12.7 µM/min.

For `CCC(=O)O[C@@H]1C[Se][Se]C[C@H]1O` (racemic), the Activity result in the data set on HeLa [18] and in the data set on HeLa [21] was “Toxic” each time. Besides, the result in the data set on HeLa [19] was inactive. Moreover, the IC50 in data set [1] came out at 121 µM. The result in data set [23] was Active. Moreover, in [22], the solubility result was “Soluble”. For the same compound, the V0 was found to be 330 µM/min in data set [2] and 23 µM/min in [3].

With `CCCCCCCC(=O)O[C@@H]1C[Se][Se]C[C@H]1O` (racemic), the Activity entry in the data set with HeLa [18] and in the data set on HeLa [21] was “Non-Toxic” each time. Also, in the data set on HeLa [19], the result was inactive. Further, the “fold change (FC)” value with HeLa [20] was 1.5. For the same compound, the IC50 in data set [1] was 30 µM. Further, the solubility result in data set [22] is recorded as “Soluble”. Besides, the V0 in data set [2] was 109 µM/min; in data set [3], 11.9 µM/min.

For `CCCCCCCCCCCC(=O)O[C@@H]1C[Se][Se]C[C@H]1O` (racemic), the Activity entry in the data set on HeLa [18] and in the data set on HeLa [21] was “Non-Toxic” in each case. The outcome with HeLa [19] was inactive. Also, the “fold change (FC)” value in the data set on HeLa [20] came out at 1.5. In data set [1], the IC50 was 10.7 µM. The solubility entry in data set [22] is “Soluble”. Besides, the figures for the V0 in data set [2] and in [3] were 122 µM/min and 9.3 µM/min, respectively.

For `CCCCCC(=O)O[C@@H]1C[Se][Se]C[C@H]1O` (racemic), the Activity entry with HeLa [18] and with HeLa [21] was “Toxic” throughout. In addition, in the data set on HeLa [19], the result was inactive. Further, the IC50 in data set [1] was found to be 42.2 µM. Further, in [23], the result was Active. Also, the solubility result in data set [22] is “Soluble”. For the same compound, the V0 turned out to be 149 µM/min in data set [2] and 14.9 µM/min in data set [3].

Consider `CCCCCCCCCC(=O)O[C@@H]1C[Se][Se]C[C@H]1O` (racemic), for which the Activity entry with HeLa [18] and with HeLa [21] was “Non-Toxic” each time. The outcome in the data set with HeLa [19] was inactive. The “fold change (FC)” value in the data set on HeLa [20] was found to be 1.5. Also, in data set [1], the IC50 came out at 13.2 µM. For the same compound, in data set [22], the solubility result is “Soluble”. Further, the results for the V0 in [2] and in data set [3] were 172 µM/min and 10.9 µM/min, respectively.

Regarding `CCCCCCCCCCCCCC(=O)O[C@@H]1C[Se][Se]C[C@H]1O` (racemic), the Activity result in the data set on HeLa [18] and in the data set on HeLa [21] was “Non-Toxic” each time. For the same compound, the outcome in [24] and in [25] was Active. Moreover, the outcome (in the data set with HeLa [19]; in data set [26]) was inactive. For the same compound, the “fold change (FC)” value in the data set with HeLa [20] is recorded as 1.5. In addition, in data set [1], the IC50 came out at 16.7 µM. The solubility result in data set [22] is “Soluble”. Moreover, the V0 in data set [2] worked out at 63 µM/min; in [3] it was 9.1 µM/min.

As for `O=c1c2ccccc2[se]n1-c1ccccc1` [EBSELEN], the viability at 15 h, 20 µM in data set [27] worked out at 80%. For the same compound, in [1], the IC50 was determined as 80.4 µM. The figures for the V0 in [2] and in data set [3] were 202 µM/min and 32.6 µM/min, respectively.

`CC1=NN(c2ccccc2)C(=O)C1` [EDARAVONE]: the IC50 turned out to be 29.3 µM in data set [1] and 18.7 µM in [28].

The values above are taken from ChEMBL document CHEMBL4673297, “Glutathione peroxidase-like functions of 1,2-diselenane-4,5-diol and its amphiphilic derivatives: Switchable catalytic cycles depending on peroxide substrates” (Bioorg Med Chem, 2021).
